Laboratory results taken from US20190119284A1, “ErbB Inhibitors and Uses Thereof” (The Regents of the University of California, priority 2016, published 2019).
Several values for one entry are separate records, joined by “and”; a condition that tells them apart may be missing. Identical values can stand only once. Like-named read-outs stand apart in the source and are kept apart here.

What was measured:
[1] = Pharmacokinetic study, IP administration in male CD-1 mice; format: in vivo
[2] = Pharmacokinetic study, IV administration in male CD-1 mice; format: in vivo
[3] = Mouse Liver Microsome stability assay; format: in vitro ADME; conditions: mouse liver microsomes
[4] = IP 2.0 mg/kg, individual mice M1-M3
[5] = IP 2.0 mg/kg, individual mice M1-M3, 2 mg/kg
[6] = IP 2.0 mg/kg, plasma, individual mice M1-M3, 2 mg/kg
[7] = male, CD-1, mouse, plasma, ip, 2 mg/kg, Mean
[8] = male, CD-1, mouse, plasma, ip, 2 mg/kg, individual mice M1-M3
[9] = IV 2.0 mg/kg, individual mice M1-M3, 2 mg/kg
[10] = IV 2.0 mg/kg, plasma, individual mice M1-M3, 2 mg/kg
[11] = male, CD-1, mouse, plasma, iv, 2 mg/kg, Mean
[12] = male, CD-1, mouse, plasma, iv, 2 mg/kg, individual mice M1-M3

COc1ccc(-c2ccc(F)cc2)cc1Nc1ncnc2[nH]nc(-c3cc[nH]n3)c12 [8168C]
Plasma Concentration at 5.00 h ([1]; IP 2.0 mg/kg, Mean): BLQ | Plasma Concentration at 8.00 h ([1]; IP 2.0 mg/kg, Mean): BLQ | Plasma Concentration at 24.00 h ([1]; IP 2.0 mg/kg, Mean): BLQ | Plasma Concentration at 8.00 h [1, 4]: BLQ | Plasma Concentration at 24.00 h [1, 4]: BLQ | Plasma Concentration at 0.25 h [1, 5]: 306.24 ng/mL and 169.92 ng/mL | Plasma Concentration at 1.00 h [1, 5]: 69.88 ng/mL and 66.74 ng/mL | Plasma Concentration at 3.00 h [1, 5]: 9.75 ng/mL and 2.05 ng/mL and BLQ | Plasma Concentration at 5.00 h [1, 5]: BLQ | AUCExtra ([1]; IP 2.0 mg/kg, plasma, Mean): 0.96% | AUC0-inf [1, 6]: 197.83 ng·h/mL | AUC0-last [1, 6]: 208.92 ng·h/mL and 196.69 ng·h/mL and 104.05 ng·h/mL | AUCExtra [1, 6]: 1.35% and 0.57% | AUCall [1, 6]: 208.92 ng·h/mL and 196.69 ng·h/mL and 104.05 ng·h/mL | Cmax [1, 6]: 306.24 ng/mL and 169.92 ng/mL | Half-life (T½) [1, 6]: 47.4 min and 22.8 min | MRT0-last [1, 6]: 63.6 min and 40.2 min and 30 min | Half-life (T½) ([1]; male, CD-1, mouse, plasma, intraperitoneal, 2 mg/kg, IP 2.0 mg/kg, Mean, read-out: Oral T½ (converted)): 35.4 min | AUC [1, 7]: 170 ng·h/mL | AUC(0-t) [1, 7]: 170 ng·h/mL | concentration at 0.25 h [1, 7]: 228 ng/mL | concentration at 1 h [1, 7]: 73.9 ng/mL | concentration at 3 h [1, 7]: 5.9 ng/mL | AUC0-inf ([1]; male, CD-1, mouse, plasma, ip, 2 mg/kg, Mean, read-out: AUC0-inf): 205 ng·h/mL | Cmax ([1]; male, CD-1, mouse, plasma, ip, 2 mg/kg, Mean, read-out: Cmax): 228 ng/mL | MRT last ([1]; male, CD-1, mouse, plasma, ip, 2 mg/kg, Mean, read-out: MRT0-last): 44.4 min | concentration at 0.25 h [1, 8]: 207 ng/mL | concentration at 1 h [1, 8]: 85.2 ng/mL | concentration at 5 h [1, 8]: 2.52 ng/mL | AUC0-inf ([1]; male, CD-1, mouse, plasma, ip, 2 mg/kg, individual mice M1-M3, read-out: AUC0-inf): 212 ng·h/mL | Cmax ([1]; male, CD-1, mouse, plasma, ip, 2 mg/kg, individual mice M1-M3, read-out: Cmax): 207 ng/mL | Tmax ([1]; male, CD-1, mouse, IP 2.0 mg/kg, plasma, individual mice M1-M3): 15 min | Plasma Concentration at 24.00 h ([2]; IV 2.0 mg/kg, Mean): BLQ | Plasma Concentration at 24.00 h ([2]; IV 2.0 mg/kg, individual mice M1-M3): BLQ | Plasma Concentration at 0.08 h [2, 9]: 643.79 ng/mL and 668.53 ng/mL | Plasma Concentration at 0.25 h [2, 9]: 361.85 ng/mL and 533.91 ng/mL | Plasma Concentration at 1.00 h [2, 9]: 124.19 ng/mL and 132.77 ng/mL | Plasma Concentration at 3.00 h [2, 9]: 16.88 ng/mL and 24.59 ng/mL | Plasma Concentration at 5.00 h [2, 9]: 4.53 ng/mL and 8.17 ng/mL and 9.69 ng/mL | Plasma Concentration at 8.00 h [2, 9]: 1.79 ng/mL and BLQ and 4.14 ng/mL | AUCExtra ([2]; IV 2.0 mg/kg, plasma, Mean): 1.68% | AUC0-inf [2, 10]: 451.15 ng·h/mL and 566.58 ng·h/mL | AUC0-last [2, 10]: 441.82 ng·h/mL and 554.77 ng·h/mL | AUCExtra [2, 10]: 0.88% and 2.07% and 2.08% | AUCall [2, 10]: 441.82 ng·h/mL and 554.77 ng·h/mL | C0 [2, 10]: 857.24 ng/mL and 747.58 ng/mL | Cl [2, 10]: 73.89 mL/min/kg and 58.83 mL/min/kg | MRT0-last [2, 10]: 52.2 min and 65.4 min | T½ [2, 10]: 102 min and 47.4 min and 119 min | Vd [2, 10]: 5.06 L/kg and 10.07 L/kg | AUC [2, 11]: 497 ng·h/mL | AUC(0-t) [2, 11]: 497 ng·h/mL | clearance [2, 11]: 66.5 mL/min/kg | concentration at 0.08 h [2, 11]: 638 ng/mL | concentration at 0.25 h [2, 11]: 426 ng/mL | concentration at 1 h [2, 11]: 146 ng/mL | concentration at 3 h [2, 11]: 18.6 ng/mL | concentration at 5 h [2, 11]: 7.46 ng/mL | concentration at 8 h [2, 11]: 2.97 ng/mL | AUC0-inf ([2]; male, CD-1, mouse, plasma, iv, 2 mg/kg, Mean, read-out: AUC0-inf): 506 ng·h/mL | C0 ([2]; male, CD-1, mouse, plasma, iv, 2 mg/kg, Mean, read-out: C0): 786 ng/mL | MRT last ([2]; male, CD-1, mouse, plasma, iv, 2 mg/kg, Mean, read-out: MRT0-last): 57.6 min | half-life ([2]; male, CD-1, mouse, plasma, iv, 2 mg/kg, Mean, read-out: T½ (converted)): 89.4 min | Vd ([2]; male, CD-1, mouse, plasma, iv, 2 mg/kg, Mean, read-out: Vd): 8.32 L/kg | AUC [2, 12]: 496 ng·h/mL | AUC(0-t) [2, 12]: 496 ng·h/mL | clearance [2, 12]: 66.7 mL/min/kg | concentration at 0.08 h [2, 12]: 601 ng/mL | concentration at 0.25 h [2, 12]: 382 ng/mL | concentration at 1 h [2, 12]: 181 ng/mL | concentration at 3 h [2, 12]: 14.3 ng/mL | AUC0-inf ([2]; male, CD-1, mouse, plasma, iv, 2 mg/kg, individual mice M1-M3, read-out: AUC0-inf): 500 ng·h/mL | C0 ([2]; male, CD-1, mouse, plasma, iv, 2 mg/kg, individual mice M1-M3, read-out: C0): 754 ng/mL | MRT last ([2]; male, CD-1, mouse, plasma, iv, 2 mg/kg, individual mice M1-M3, read-out: MRT0-last): 56.4 min | Vd ([2]; male, CD-1, mouse, plasma, iv, 2 mg/kg, individual mice M1-M3, read-out: Vd): 9.82 L/kg | WuXi Microsomal stability (Mouse Extraction Ratio) [3]: 0.4
